Measured values: US20250186627A1, “RADIOLABELED COMPOUNDS TARGETING THE PROSTATE-SPECIFIC MEMBRANE ANTIGEN” (PROVINCIAL HEALTH SERVICES AUTHORITY, priority 2022, published 2025)

Test system: NRG-mice bearing LNCaP tumors
Assay: Biodistribution (and PET/SPECT imaging) in NRG-mice bearing LNCaP tumors
Format: in vivo
Details: Avg
Experimental: LNCaP cell line was obtained from ATCC (LNCaP clone FGC, CRL-1740). It was established from a metastatic site of left supraclavicular lymph node of human prostatic adenocarcinoma. Cells were cultured in PRMI 1640 medium supplemented with 10% FBS, penicillin (100 U/mL) and streptomycin (100 μg/mL) at 37° C. in a humidified incubator containing 5% CO2. Cells grown to 80-90% confluence were then washed with sterile phosphate-buffered saline (1×PBS pH 7.4) and trypsinization. The collected cells number was counted with a Hausser Scientific (Horsham, PA) Hemacytometer. Approximately 10 million LNCaP cells were inoculated into the left dorsal flank of immunocomprised NRG mice. The tumours were allowed to grow for 4-6 weeks and used for imaging and biodistribution studies when a volume of 200-600 mm^3 was reached.
PET imaging experiments were conducted using Siemens Inveon micro PET/CT scanner. SPECT imaging experiments were conducted using an MILabs micro SPECT/CT scanner. Each tumor bearing mouse was injected 4-6 MBq of ^68Ga or 18.5 MBq of ^177Lu labeled tracer through the tail vein under anesthesia (2% isoflurane in oxygen). The mice were allowed to recover and roam freely in their cage. At pre-defined time point, the mice were sedated again with 2% isoflurane in oxygen inhalation and positioned in the scanner. A 10-min CT scan was conducted first for localization and attenuation correction after segmentation for reconstructing the PET or SPECT images. Then, a 10-min static PET imaging or a one hour (30 min×2 frames) of static SPECT scan was performed to determined uptake in tumor and other organs. The mice were kept warm by a heating pad during acquisition.
For biodistribution studies, the mice were injected with the radiotracer as described above. The mice were anesthetized with 2% isoflurane inhalation, and euthanized by CO2 inhalation. Blood was withdrawn immediately from the heart, and the organs/tissues of interest were collected. The collected organs/tissues were weighed and counted using a Perkin Elmer (Waltham, MA) Wizard2 2480 gamma counter. The uptake in each organ/tissue was normalized to the injected dose (radioactivity) using a standard curve, and expressed as the percentage of the injected dose per gram of tissue (% ID/g).

## COc1ccc(CCCC(=O)NCC(=O)NC(CCCCNC(=O)CN2CCN(CC(=O)[O-])CCN(CC(=O)[O-])CCN(CC(=O)[O-])CC2)CC(=O)NCC2CCC(C(=O)NC(Cc3c4ccccc4cc4ccccc34)C(=O)NCCCCC(NC(=O)NC(CC(F)C(=O)O)C(=O)O)C(=O)O)CC2)cc1.[177Lu+3] (centres unmarked) [^177Lu-CCZ02019]
3 h p.i.
  Biodistribution: Adrenal gland: 2.79 % ID/g
  Biodistribution: Blood: 11.22 % ID/g
  Biodistribution: Bone: 1.03 % ID/g
  Biodistribution: Brain: 0.18 % ID/g
  Biodistribution: Fat: 1.91 % ID/g
  Biodistribution: Heart: 2.52 % ID/g
  Biodistribution: Intestine: 0.98 % ID/g
  Biodistribution: LNCaP tumor: 50.23 % ID/g
  Biodistribution: Lacrimal gland: 0.39 % ID/g
  Biodistribution: Liver: 2.18 % ID/g
  Biodistribution: Lungs: 5.22 % ID/g
  Biodistribution: Muscle: 0.87 % ID/g
  Biodistribution: Pancreas: 1.07 % ID/g
  Biodistribution: Salivary gland: 1.92 % ID/g
  Biodistribution: Seminal gland: 0.59 % ID/g
  Biodistribution: Spleen: 1.53 % ID/g
  Biodistribution: Stomach: 0.58 % ID/g
  Biodistribution: Testes: 2.55 % ID/g
  Biodistribution: Thyroid: 2.44 % ID/g
  Biodistribution: Urine: 180.95 % ID/g
  Biodistribution: kidney: 10.42 % ID/g
24 h p.i.
  Biodistribution: Adrenal gland: 0.54 % ID/g
  Biodistribution: Blood: 0.70 % ID/g
  Biodistribution: Bone: 0.18 % ID/g
  Biodistribution: Brain: 0.03 % ID/g
  Biodistribution: Fat: 0.33 % ID/g
  Biodistribution: Heart: 0.37 % ID/g
  Biodistribution: Intestine: 0.23 % ID/g
  Biodistribution: LNCaP tumor: 55.39 % ID/g
  Biodistribution: Lacrimal gland: 0.00 % ID/g
  Biodistribution: Liver: 0.48 % ID/g
  Biodistribution: Lungs: 0.65 % ID/g
  Biodistribution: Muscle: 0.11 % ID/g
  Biodistribution: Pancreas: 0.17 % ID/g
  Biodistribution: Salivary gland: 0.56 % ID/g
  Biodistribution: Seminal gland: 0.23 % ID/g
  Biodistribution: Spleen: 0.37 % ID/g
  Biodistribution: Stomach: 0.73 % ID/g
  Biodistribution: Testes: 0.37 % ID/g
  Biodistribution: Thyroid: 0.52 % ID/g
  Biodistribution: Urine: 8.42 % ID/g
  Biodistribution: kidney: 4.02 % ID/g
72 h p.i.
  Biodistribution: Adrenal gland: 0.53 % ID/g
  Biodistribution: Blood: 0.13 % ID/g
  Biodistribution: Bone: 0.05 % ID/g
  Biodistribution: Brain: 0.01 % ID/g
  Biodistribution: Fat: 0.16 % ID/g
  Biodistribution: Heart: 0.18 % ID/g
  Biodistribution: Intestine: 0.08 % ID/g
  Biodistribution: LNCaP tumor: 45.10 % ID/g
  Biodistribution: Lacrimal gland: 0.00 % ID/g
  Biodistribution: Liver: 0.29 % ID/g
  Biodistribution: Lungs: 0.41 % ID/g
  Biodistribution: Muscle: 0.04 % ID/g
  Biodistribution: Pancreas: 0.09 % ID/g
  Biodistribution: Salivary gland: 0.27 % ID/g
  Biodistribution: Seminal gland: 0.06 % ID/g
  Biodistribution: Spleen: 0.45 % ID/g
  Biodistribution: Stomach: 0.15 % ID/g
  Biodistribution: Testes: 0.39 % ID/g
  Biodistribution: Thyroid: 0.37 % ID/g
  Biodistribution: Urine: 1.12 % ID/g
  Biodistribution: kidney: 1.84 % ID/g
144 h p.i.
  Biodistribution: Adrenal gland: 0.31 % ID/g
  Biodistribution: Blood: 0.04 % ID/g
  Biodistribution: Bone: 0.04 % ID/g
  Biodistribution: Brain: 0.01 % ID/g
  Biodistribution: Fat: 0.11 % ID/g
  Biodistribution: Heart: 0.13 % ID/g
  Biodistribution: Intestine: 0.03 % ID/g
  Biodistribution: LNCaP tumor: 40.77 % ID/g
  Biodistribution: Lacrimal gland: 0.00 % ID/g
  Biodistribution: Liver: 0.19 % ID/g
  Biodistribution: Lungs: 0.93 % ID/g
  Biodistribution: Muscle: 0.03 % ID/g
  Biodistribution: Pancreas: 0.06 % ID/g
  Biodistribution: Salivary gland: 0.34 % ID/g
  Biodistribution: Seminal gland: 0.03 % ID/g
  Biodistribution: Spleen: 0.51 % ID/g
  Biodistribution: Stomach: 0.03 % ID/g
  Biodistribution: Testes: 0.33 % ID/g
  Biodistribution: Thyroid: 0.28 % ID/g
  Biodistribution: Urine: 0.84 % ID/g
  Biodistribution: kidney: 1.10 % ID/g
240 h p.i.
  Biodistribution: Adrenal gland: 0.11 % ID/g
  Biodistribution: Blood: 0.01 % ID/g
  Biodistribution: Bone: 0.00 % ID/g
  Biodistribution: Brain: 0.00 % ID/g
  Biodistribution: Fat: 0.06 % ID/g
  Biodistribution: Heart: 0.05 % ID/g
  Biodistribution: Intestine: 0.02 % ID/g
  Biodistribution: LNCaP tumor: 25.30 % ID/g
  Biodistribution: Lacrimal gland: 0.00 % ID/g
  Biodistribution: Liver: 0.15 % ID/g
  Biodistribution: Lungs: 0.09 % ID/g
  Biodistribution: Muscle: 0.01 % ID/g
  Biodistribution: Pancreas: 0.03 % ID/g
  Biodistribution: Salivary gland: 0.10 % ID/g
  Biodistribution: Seminal gland: 0.01 % ID/g
  Biodistribution: Spleen: 0.46 % ID/g
  Biodistribution: Stomach: 0.02 % ID/g
  Biodistribution: Testes: 0.16 % ID/g
  Biodistribution: Thyroid: 0.12 % ID/g
  Biodistribution: Urine: 0.37 % ID/g
  Biodistribution: kidney: 0.52 % ID/g

## COc1ccc(CCCC(=O)NCC(=O)NC(CCCCNC(=O)CN2CCN(CC(=O)[O-])CCN(CC(=O)[O-])CCN(CC(=O)[O-])CC2)C(=O)NCC2CCC(C(=O)NC(Cc3c4ccccc4cc4ccccc34)C(=O)NCCCCC(NC(=O)NC(CCCC(=O)O)C(=O)O)C(=O)O)CC2)cc1.[177Lu+3] (centres unmarked) [^177Lu-HTK03170, reference compound]
24 h p.i.
  Biodistribution: Blood: 0.73 % ID/g
  Biodistribution: Bone: 0.18 % ID/g
  Biodistribution: Intestine: 0.18 % ID/g
  Biodistribution: LNCaP tumor: 42.96 % ID/g
  Biodistribution: Liver: 0.49 % ID/g
  Biodistribution: Muscle: 0.10 % ID/g
  Biodistribution: Salivary gland: 0.35 % ID/g
  Biodistribution: Spleen: 0.33 % ID/g
  Biodistribution: Urine: 19.02 % ID/g
  Biodistribution: kidney: 6.06 % ID/g
72 h p.i.
  Biodistribution: Blood: 0.07 % ID/g
  Biodistribution: Bone: 0.19 % ID/g
  Biodistribution: Intestine: 0.08 % ID/g
  Biodistribution: LNCaP tumor: 56.98 % ID/g
  Biodistribution: Liver: 0.27 % ID/g
  Biodistribution: Muscle: 0.15 % ID/g
  Biodistribution: Salivary gland: 0.31 % ID/g
  Biodistribution: Spleen: 0.36 % ID/g
  Biodistribution: Urine: 4.96 % ID/g
  Biodistribution: kidney: 4.30 % ID/g
